# Measurements taken from patent publication US20050261288A1, “Tetracyclic lactam derivatives and uses thereof” (priority 2004, published 2005).
# Biological target: T1, PARP (Mus musculus, UniProt P11103)
# T1 construct: endogenous in cells; host or cells: RAW mouse macrophages
# Test: PARP activation in cultured murine macrophages, whole-cell macrophage assay (peroxynitrite-induced)
# Assay type: cell-based
# Details: for IC50: PARP activation in cultured murine macrophages
# Protocol: Without being bound by theory, Applicants believe that Tetracyclic Lactam Derivatives that inhibit PARP are useful for treating or preventing a Condition.
# In a typical procedure, RAW mouse macrophages are cultured in DMEM medium with high glucose and supplemented with 10% fetal bovine serum. Cells are used at 80% confluence in 12-well plates. Cells are pretreated with various concentrations (100 nM-1 μM) of a Tetracyclic Lactam Derivative for 10 min. Peroxynitrite, a prototypical oxidant which induces DNA single strand breakage, is used to induce PARP activation. In a typical assay, peroxynitrite is diluted in phosphate buffered saline (PBS) (pH 11.0) and added to the cells in a bolus of 50 μL. Cells are then incubated for 20 minutes. Peroxynitrite is decomposed by incubation for 30 min at pH 7.0, and used as a control. After the 20 minute incubation period, the cells are spun, the medium is aspirated and the cells are resuspended in 0.5 mL assay buffer (56 mM HEPES pH 7:5, 28 mM KCl, 28 mM NaCl, 2 mM MgCl2, 0.01% w/v digitonin and 0.125 μM NAD^+ and 0.5 μCi/ml ^3H-NAD^+). Following incubation in assay buffer, (10 min at 37° C.), PARP activity can be measured as follows: 200 μL ice cold 50% w/v TCA is added and the samples are incubated for 4 h at 4° C. Samples are then spun (10 min @ 10,000 g) and the resulting pellets are washed twice with ice cold 5% w/v TCA and solubilized overnight in 250 μL 2% w/v SDS/0.1 N NaOH at 37° C. The contents of the tubes are added to 6.5 mL ScintiSafe Plus scintillation liquid (Fisher Scientific) and radioactivity is determined using a liquid scintillation counter (Wallac, Gaithersburg, Md.).
# Examples of the inhibitory effects of illustrative Tetracyclic Lactam Derivatives in the whole-cell macrophage assay are illustrated in Tables 3 and 4 below.
# T1 sequence (P11103 whole entry): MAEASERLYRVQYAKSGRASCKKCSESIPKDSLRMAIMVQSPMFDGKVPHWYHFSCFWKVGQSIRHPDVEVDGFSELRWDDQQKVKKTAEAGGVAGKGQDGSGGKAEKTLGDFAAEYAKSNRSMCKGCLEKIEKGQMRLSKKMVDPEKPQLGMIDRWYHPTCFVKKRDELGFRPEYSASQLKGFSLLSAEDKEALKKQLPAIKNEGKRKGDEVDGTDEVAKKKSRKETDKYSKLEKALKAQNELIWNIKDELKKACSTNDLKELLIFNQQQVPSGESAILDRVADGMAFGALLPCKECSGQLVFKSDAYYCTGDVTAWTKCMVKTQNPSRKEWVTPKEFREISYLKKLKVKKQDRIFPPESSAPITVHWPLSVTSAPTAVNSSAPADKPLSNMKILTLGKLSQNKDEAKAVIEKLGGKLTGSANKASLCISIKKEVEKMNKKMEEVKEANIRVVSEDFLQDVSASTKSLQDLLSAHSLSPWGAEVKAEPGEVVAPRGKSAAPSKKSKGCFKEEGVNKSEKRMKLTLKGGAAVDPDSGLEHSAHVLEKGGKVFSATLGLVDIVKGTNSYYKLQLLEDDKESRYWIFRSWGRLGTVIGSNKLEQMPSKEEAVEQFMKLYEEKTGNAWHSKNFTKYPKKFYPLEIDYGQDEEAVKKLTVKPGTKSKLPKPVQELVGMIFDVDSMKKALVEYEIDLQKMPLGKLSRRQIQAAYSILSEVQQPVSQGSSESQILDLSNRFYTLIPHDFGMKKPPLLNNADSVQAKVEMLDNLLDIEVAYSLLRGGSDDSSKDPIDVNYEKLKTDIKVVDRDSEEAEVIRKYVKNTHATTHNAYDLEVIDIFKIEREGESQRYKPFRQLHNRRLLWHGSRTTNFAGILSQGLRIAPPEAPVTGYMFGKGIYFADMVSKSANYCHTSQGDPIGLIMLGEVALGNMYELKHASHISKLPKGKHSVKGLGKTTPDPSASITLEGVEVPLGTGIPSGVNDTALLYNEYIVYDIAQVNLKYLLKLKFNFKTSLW
SMILES,IC50 [µM],"inhibition at 0.1 µM (0.1 μM, RAW mouse macrophages, peroxynitrite-induced PARP activation) [%]","inhibition at 0.3 µM (0.3 μM, RAW mouse macrophages, peroxynitrite-induced PARP activation) [%]","inhibition at 1 µM (1 μM, RAW mouse macrophages, peroxynitrite-induced PARP activation) [%]","inhibition at 3 µM (3 μM, RAW mouse macrophages, peroxynitrite-induced PARP activation) [%]"
"COC(=O)n1c2ccccc2c2[nH]c(=O)c3ccccc3c21 [Compound 61, METHYL-5-OXO-5,6-DIHYDRO-INDOLO[3,2-C]ISOQUINOLINE-11-CARBOXYLATE]",10 to 100,,,,
"CCOC(=O)n1c2ccccc2c2[nH]c(=O)c3ccccc3c21 [Compound 63, ETHYL-5-OXO-5,6-DIRYDRO-INDOLO[3,2-C]ISOQUINOLINE-11-CARBOXYLATE]",1 to 10,33,43,50,65
"CCCOC(=O)n1c2ccccc2c2[nH]c(=O)c3ccccc3c21 [Compound 107, N-PROPYL-5-OXO-5,6-DIHYDRO-INDOLO[3,2-C]ISOQUINOLINE-11-CARBOXYLATE]",10 to 100,,,,
"CC(C)OC(=O)n1c2ccccc2c2[nH]c(=O)c3ccccc3c21 [Compound 108, ISO-PROPYL-5-OXO-5,6-DIHYDRO-INDOLO[3,2-C]ISOQUINOLINE-11-CARBOXYLATE]",10 to 100,,,,
"CCCCOC(=O)n1c2ccccc2c2[nH]c(=O)c3ccccc3c21 [Compound 109, N-BUTYL-5-OXO-5,6-DIHYDRO-INDOLO[3,2-C]ISOQUINOLINE-11-CARBOXYLATE]",10 to 100,,,,
